ChEMBL document CHEMBL1212695, “An allosteric potentiator of M4 mAChR modulates hippocampal synaptic transmission” (Nat Chem Biol, 2008)
The source made the active and inactive calls. No cut-off for these calls is given here.

Columns and labels:
[1] = target: T1, Muscarinic acetylcholine receptor M4 (Rattus norvegicus) (UniProt P08485); assay: (§1) Allosteric activation of rat recombinant muscarinic M4 receptor expressed in CHO cells assessed as potentiation of 10 uM acetylcholine-induced calcium mobilization after 1 hr by fluorescence assay; assay type: functional, cell-based
T1 sequence (whole entry): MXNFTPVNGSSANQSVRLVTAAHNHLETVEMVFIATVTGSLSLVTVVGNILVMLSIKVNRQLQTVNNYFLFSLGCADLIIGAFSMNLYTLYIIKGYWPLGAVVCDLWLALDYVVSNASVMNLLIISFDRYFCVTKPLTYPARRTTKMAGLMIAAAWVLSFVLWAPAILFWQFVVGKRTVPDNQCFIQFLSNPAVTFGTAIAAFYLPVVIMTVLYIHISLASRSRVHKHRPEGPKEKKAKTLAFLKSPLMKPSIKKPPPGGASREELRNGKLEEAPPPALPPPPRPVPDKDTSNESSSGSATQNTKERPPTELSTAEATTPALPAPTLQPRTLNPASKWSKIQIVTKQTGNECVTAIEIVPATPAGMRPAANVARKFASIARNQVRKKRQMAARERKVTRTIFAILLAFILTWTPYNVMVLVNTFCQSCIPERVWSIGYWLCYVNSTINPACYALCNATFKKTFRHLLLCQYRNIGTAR

[2] = target: T1, Muscarinic acetylcholine receptor M4 (Rattus norvegicus); assay: Agonist activity at muscarinic M4 receptor in Sprague-Dawley rat hippocampal CA1 pyramidal neuron assessed as reduction in excitatory postsynaptic current at 5 uM by whole-cell electrophysiology in presence of carbachol relative to control; assay type: functional, tissue-based; conditions: Hippocampus
[3] = target: Muscarinic acetylcholine receptor M3 (Rattus norvegicus) (UniProt P08483); assay: Allosteric activation of rat recombinant muscarinic M3 receptor expressed in CHO cells assessed as potentiation of acetylcholine-induced calcium mobilization at 10 uM after 1 hr by fluorescence assay; assay type: functional, cell-based
[4] = target: T2, Muscarinic acetylcholine receptor M5 (Rattus norvegicus) (UniProt P08911); assay: Allosteric activation of rat recombinant muscarinic M5 receptor expressed in CHO cells assessed as potentiation of acetylcholine-induced calcium mobilization at 10 uM after 1 hr by fluorescence assay; assay type: functional, cell-based
T2 sequence (whole entry): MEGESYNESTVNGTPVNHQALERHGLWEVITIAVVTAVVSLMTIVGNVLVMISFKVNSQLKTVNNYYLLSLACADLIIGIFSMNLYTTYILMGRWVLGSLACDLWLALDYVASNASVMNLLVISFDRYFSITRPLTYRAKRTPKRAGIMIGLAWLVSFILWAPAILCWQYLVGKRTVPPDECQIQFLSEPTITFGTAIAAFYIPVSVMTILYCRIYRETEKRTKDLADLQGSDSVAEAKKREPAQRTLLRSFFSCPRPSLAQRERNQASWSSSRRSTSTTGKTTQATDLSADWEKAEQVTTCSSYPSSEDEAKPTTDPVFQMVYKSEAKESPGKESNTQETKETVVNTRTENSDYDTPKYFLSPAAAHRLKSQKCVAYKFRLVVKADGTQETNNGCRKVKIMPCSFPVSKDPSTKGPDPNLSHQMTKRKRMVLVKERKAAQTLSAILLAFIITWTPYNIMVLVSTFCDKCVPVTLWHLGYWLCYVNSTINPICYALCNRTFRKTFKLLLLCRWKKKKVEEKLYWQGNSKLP

[5] = target: T3, Muscarinic acetylcholine receptor M4 (Rattus norvegicus, UniProt P08485); assay: Allosteric activation of rat recombinant muscarinic M4 receptor expressed in CHO cells assessed as potentiation of 15 nM acetylcholine-induced calcium mobilization after 1 hr by fluorescence assay; assay type: functional, cell-based
T3 sequence (P08485 whole entry): T1 sequence (whole entry)

[6] = target: T4, Muscarinic acetylcholine receptor M1 (Rattus norvegicus) (UniProt P08482); assay: Allosteric activation of rat recombinant muscarinic M1 receptor expressed in CHO cells assessed as potentiation of acetylcholine-induced calcium mobilization at 10 uM after 1 hr by fluorescence assay; assay type: functional, cell-based
T4 sequence (whole entry): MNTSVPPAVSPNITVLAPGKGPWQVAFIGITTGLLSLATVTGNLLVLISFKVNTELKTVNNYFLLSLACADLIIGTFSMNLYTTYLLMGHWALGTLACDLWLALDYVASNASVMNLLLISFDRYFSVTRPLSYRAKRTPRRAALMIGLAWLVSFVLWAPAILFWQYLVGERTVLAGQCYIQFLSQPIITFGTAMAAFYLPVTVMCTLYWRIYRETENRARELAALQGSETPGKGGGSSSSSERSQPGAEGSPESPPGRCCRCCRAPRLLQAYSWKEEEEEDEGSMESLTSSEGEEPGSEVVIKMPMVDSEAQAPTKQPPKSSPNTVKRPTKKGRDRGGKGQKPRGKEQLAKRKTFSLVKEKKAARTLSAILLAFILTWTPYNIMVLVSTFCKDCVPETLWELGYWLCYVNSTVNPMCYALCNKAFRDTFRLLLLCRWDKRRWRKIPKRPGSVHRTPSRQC

[7] = target: T5, Muscarinic acetylcholine receptor M2 (Rattus norvegicus) (UniProt P10980); assay: Allosteric activation of rat recombinant muscarinic M2 receptor expressed in CHO cells assessed as potentiation of acetylcholine-induced calcium mobilization at 10 uM after 1 hr by fluorescence assay; assay type: functional, cell-based
T5 sequence (whole entry): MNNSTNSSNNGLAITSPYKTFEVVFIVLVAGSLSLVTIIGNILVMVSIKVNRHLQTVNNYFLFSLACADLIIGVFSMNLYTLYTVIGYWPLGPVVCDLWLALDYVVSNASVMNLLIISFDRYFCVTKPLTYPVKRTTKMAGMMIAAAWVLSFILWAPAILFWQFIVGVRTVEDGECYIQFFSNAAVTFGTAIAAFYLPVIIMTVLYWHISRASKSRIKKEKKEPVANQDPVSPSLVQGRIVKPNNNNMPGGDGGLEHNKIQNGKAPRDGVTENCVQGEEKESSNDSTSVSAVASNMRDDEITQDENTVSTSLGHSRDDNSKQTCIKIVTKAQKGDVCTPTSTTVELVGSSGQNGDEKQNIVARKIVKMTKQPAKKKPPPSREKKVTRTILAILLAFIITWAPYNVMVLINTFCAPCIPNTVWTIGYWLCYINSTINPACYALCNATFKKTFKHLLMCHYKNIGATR

[8] = target: T3, Muscarinic acetylcholine receptor M4; assay: as §1; assay type: functional, cell-based
[9] = target: T1, Muscarinic acetylcholine receptor M4 (Rattus norvegicus); assay: Allosteric activation of rat recombinant muscarinic M4 receptor expressed in CHO cells assessed as […] in acetylcholine EC50 for induction of calcium mobilization at 10 uM after 1 hr by fluorescence assay; assay type: functional, cell-based
[10] = target: T1, Muscarinic acetylcholine receptor M4 (Rattus norvegicus); assay: Allosteric activation of rat recombinant muscarinic M4 receptor expressed in CHO cells assessed as induction of calcium mobilization after 1 hr by fluorescence assay; assay type: functional, cell-based

Chain of Muscarinic acetylcholine receptor M3 (Rattus norvegicus) (P08483 whole entry, looked up): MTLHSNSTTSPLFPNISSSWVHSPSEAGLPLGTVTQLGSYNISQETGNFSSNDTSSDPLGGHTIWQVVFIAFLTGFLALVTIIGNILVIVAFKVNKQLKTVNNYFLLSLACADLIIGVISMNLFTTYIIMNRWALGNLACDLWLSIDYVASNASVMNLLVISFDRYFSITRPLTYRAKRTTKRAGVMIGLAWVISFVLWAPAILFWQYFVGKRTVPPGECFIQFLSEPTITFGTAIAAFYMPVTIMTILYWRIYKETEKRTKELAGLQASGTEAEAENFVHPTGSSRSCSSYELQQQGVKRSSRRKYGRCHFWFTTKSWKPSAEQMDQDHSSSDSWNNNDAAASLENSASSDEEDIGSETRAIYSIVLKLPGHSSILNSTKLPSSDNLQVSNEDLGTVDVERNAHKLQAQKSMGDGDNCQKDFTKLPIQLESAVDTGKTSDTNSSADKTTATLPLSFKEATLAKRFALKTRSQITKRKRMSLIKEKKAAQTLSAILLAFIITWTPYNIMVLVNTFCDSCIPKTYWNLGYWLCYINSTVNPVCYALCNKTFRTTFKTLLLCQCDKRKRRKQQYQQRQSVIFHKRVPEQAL

Cc1cc(C)c2c(N)c(C(=O)NC(C)(C)C)sc2n1
Activity [1]: Active

Cc1cc(C)c2c(N)c(C(=O)N[C@@H](C)c3ccccc3)sc2n1
Activity [1]: inactive
inhibition [2]: 61.6%

CCCNC(=O)c1sc2nc(C)cc(C)c2c1N
Activity [1]: Active

Cc1cc(C)c2c(N)c(C(=O)NCC(C)C)sc2n1
Activity [1]: Active

Cc1cc(C)c2c(N)c(C(=O)NCc3ccccc3)sc2n1
Activity [3]: inactive
Activity [4]: inactive
EC50 [5]: 1300 nM
Activity [6]: inactive
Activity [7]: inactive

Cc1cc(C)c2c(N)c(C(=O)NCc3ccc(F)cc3)sc2n1
EC50 [8]: 300 nM
fold change (FC) [9]: 30

Cc1cc(C)c2c(N)c(C(=O)NC(C)C)sc2n1
Activity [3]: inactive
Activity [4]: inactive
EC50 [5]: 6000 nM
Activity [6]: inactive
Activity [7]: inactive

CCNC(=O)c1sc2nc(C)cc(C)c2c1N
Activity [1]: Active

Cc1cc(C)c2c(N)c(C(=O)NC3CC3)sc2n1
Activity [1]: Active

Cc1cc(C)c2c(N)c(C(=O)NCc3ccco3)sc2n1
fold change (FC) [9]: 21
Activity [3]: inactive
Activity [4]: inactive
Activity [6]: inactive
Activity [7]: inactive

Cc1cc(C)c2c(N)c(C(=O)NCc3ccc(C(F)(F)F)cc3)sc2n1
EC50 [8]: 715 nM
fold change (FC) [9]: 37

Cc1cc(C)c2c(N)c(C(=O)N[C@H](C)c3ccccc3)sc2n1
Activity [1]: Active

CC(=O)OCC[N+](C)(C)C
EC20 [10]: 15 nM
EC100 [10]: 10 µM
